From ChEMBL document CHEMBL3885861, “Open TG-GATES”

Species on record: Rattus norvegicus
Assay: Open TG-GATES - Regimen: Single
Assay type: toxicity, organism-based, Sprague-Dawley
Set-up: regimen Single, gender Male, age 6 weeks
Conditions: in vivo, po, 0 mg/kg, route gavage, dose level Control; for APTT / Bas / Eos / Fbg / Hb / Ht / Lym / MCH / MCHC / MCV / Mono / Neu / PT / Plat / RBC / Ret / WBC: tissue Blood; for KIDNEY_L / KIDNEY_R / KIDNEY_TOTAL: tissue Kidney; for LIVER: tissue Liver; for A/G / ALP / ALT / AST / BUN / CRE / Ca / Cl / DBIL / GLC / IP / K / LDH / Na / PL / RALB / TBIL / TC / TG / TP / gamma-GTP: tissue Plasma

CC1=C(/C=C/C(C)=C/C=C/C(C)=C/CO)C(C)(C)CCC1 [RETINOL] was tested, and the TERMINAL_BW (3 h) was 195.7 g, the APTT (3 h) was 22 s and the Bas (3 h) was 0%. For the same molecule, the Eos (3 h) was 0.8%, the Fbg (3 h) was 294.8 mg/dL and the Hb (3 h) was 13.3 g/dL. The Ht (3 h) was 38.7%, the Lym (3 h) was 79.4% and the MCH (3 h) was 21.4 pg. It also gave an MCHC (3 h) of 34.5%, an MCV (3 h) of 62.2 fL and a Mono (3 h) of 2%. The Neu (3 h) was 16.8%, the PT (3 h) was 15.8 s and the Plat (3 h) was 108.5 x10_4/uL. For the same molecule, the RBC (3 h) was 621.4 x10_4/ul, the Ret (3 h) was 8.9% and the WBC (3 h) was 97.5 x10_2/uL. The KIDNEY_L (3 h) was 0.9 g, the KIDNEY_R (3 h) was 0.9 g and the KIDNEY_TOTAL (3 h) was 1.8 g. For the same molecule, the LIVER (3 h) was 9 g, the A/G (3 h) was 1.3 and the ALP (3 h) was 1760.6 IU/L. The ALT (3 h) was 48 IU/L, the AST (3 h) was 83.6 IU/L and the BUN (3 h) was 12.8 mg/dL. The CRE (3 h) was 0.2 mg/dL, the Ca (3 h) was 10.6 mg/dL and the Cl (3 h) was 107.6 meq/L. For the same molecule, the DBIL (3 h) was 0 mg/dL, the GLC (3 h) was 181 mg/dL and the IP (3 h) was 8.4 mg/dL. It also gave a K (3 h) of 3.8 meq/L, an LDH (3 h) of 265.2 IU/L and a Na (3 h) of 142.2 meq/L. The PL (3 h) was 148.6 mg/dL, the RALB (3 h) was 3.2 g/dL and the TBIL (3 h) was 0.012 mg/dL. For the same molecule, the TC (3 h) was 77 mg/dL, the TG (3 h) was 58.6 mg/dL and the TP (3 h) was 5.6 g/dL. For the same molecule, the gamma-GTP (3 h) was 2.8 IU/L, the TERMINAL_BW (6 h) was 199.1 g and the APTT (6 h) was 21.6 s. For the same molecule, the Bas (6 h) was 0%, the Eos (6 h) was 0.6% and the Fbg (6 h) was 309.6 mg/dL. For the same molecule, the Hb (6 h) was 13.5 g/dL, the Ht (6 h) was 38.8% and the Lym (6 h) was 77%. It also gave an MCH (6 h) of 21.6 pg, an MCHC (6 h) of 34.9% and an MCV (6 h) of 61.8 fL. It also gave a Mono (6 h) of 3%, a Neu (6 h) of 18.8% and a PT (6 h) of 15.7 s. The Plat (6 h) was 114.9 x10_4/uL, the RBC (6 h) was 628.2 x10_4/ul and the Ret (6 h) was 8.5%. It also gave a WBC (6 h) of 113.2 x10_2/uL, a KIDNEY_L (6 h) of 1 g and a KIDNEY_R (6 h) of 1 g. The KIDNEY_TOTAL (6 h) was 1.9 g, the LIVER (6 h) was 9.2 g and the A/G (6 h) was 1.3. It also gave an ALP (6 h) of 1700 IU/L, an ALT (6 h) of 36.8 IU/L and an AST (6 h) of 67.8 IU/L. For the same molecule, the BUN (6 h) was 10.6 mg/dL, the CRE (6 h) was 0.1 mg/dL and the Ca (6 h) was 10.9 mg/dL. For the same molecule, the Cl (6 h) was 106.4 meq/L, the DBIL (6 h) was 0.014 mg/dL and the GLC (6 h) was 181.4 mg/dL. The IP (6 h) was 9.9 mg/dL, the K (6 h) was 4.5 meq/L and the LDH (6 h) was 223.6 IU/L. For the same molecule, the Na (6 h) was 142 meq/L, the PL (6 h) was 152 mg/dL and the RALB (6 h) was 3.2 g/dL. It also gave a TBIL (6 h) of 0.022 mg/dL, a TC (6 h) of 80.6 mg/dL and a TG (6 h) of 79.6 mg/dL. It also gave a TP (6 h) of 5.5 g/dL, a gamma-GTP (6 h) of 1.2 IU/L and a TERMINAL_BW (9 h) of 198.5 g. The APTT (9 h) was 21.2 s, the Bas (9 h) was 0% and the Eos (9 h) was 0.6%. It also gave a Fbg (9 h) of 303.2 mg/dL, a Hb (9 h) of 13.1 g/dL and a Ht (9 h) of 38.3%. It also gave a Lym (9 h) of 81.4%, an MCH (9 h) of 21.6 pg and an MCHC (9 h) of 34.3%. The MCV (9 h) was 63 fL, the Mono (9 h) was 2.6% and the Neu (9 h) was 15%. The PT (9 h) was 15.8 s, the Plat (9 h) was 122.4 x10_4/uL and the RBC (9 h) was 608.2 x10_4/ul. It also gave a Ret (9 h) of 7.9%, a WBC (9 h) of 88.4 x10_2/uL and a KIDNEY_L (9 h) of 0.9 g. The KIDNEY_R (9 h) was 0.9 g, the KIDNEY_TOTAL (9 h) was 1.9 g and the LIVER (9 h) was 8.3 g. It also gave an A/G (9 h) of 1.2, an ALP (9 h) of 1691.8 IU/L and an ALT (9 h) of 33.8 IU/L. The AST (9 h) was 72.2 IU/L, the BUN (9 h) was 10 mg/dL and the CRE (9 h) was 0.1 mg/dL. It also gave a Ca (9 h) of 10.8 mg/dL, a Cl (9 h) of 107.8 meq/L and a DBIL (9 h) of 0 mg/dL. It also gave a GLC (9 h) of 183 mg/dL, an IP (9 h) of 10.8 mg/dL and a K (9 h) of 4.4 meq/L. For the same molecule, the LDH (9 h) was 302 IU/L, the Na (9 h) was 142 meq/L and the PL (9 h) was 131.2 mg/dL. For the same molecule, the RALB (9 h) was 2.9 g/dL, the TBIL (9 h) was 0.018 mg/dL and the TC (9 h) was 73.4 mg/dL. For the same molecule, the TG (9 h) was 52.2 mg/dL, the TP (9 h) was 5.4 g/dL and the gamma-GTP (9 h) was 4.4 IU/L. For the same molecule, the TERMINAL_BW (24 h) was 205.1 g, the APTT (24 h) was 20.8 s and the Bas (24 h) was 0%. For the same molecule, the Eos (24 h) was 0.8%, the Fbg (24 h) was 294 mg/dL and the Hb (24 h) was 13.1 g/dL. It also gave a Ht (24 h) of 37.7%, a Lym (24 h) of 79.4% and an MCH (24 h) of 21.9 pg. For the same molecule, the MCHC (24 h) was 34.8%, the MCV (24 h) was 63.2 fL and the Mono (24 h) was 2.6%. For the same molecule, the Neu (24 h) was 16.6%, the PT (24 h) was 16.1 s and the Plat (24 h) was 119.1 x10_4/uL. It also gave an RBC (24 h) of 598.2 x10_4/ul, a Ret (24 h) of 7.8% and a WBC (24 h) of 85.8 x10_2/uL. It also gave a KIDNEY_L (24 h) of 0.9 g, a KIDNEY_R (24 h) of 0.9 g and a KIDNEY_TOTAL (24 h) of 1.9 g. For the same molecule, the LIVER (24 h) was 9.7 g, the A/G (24 h) was 1.3 and the ALP (24 h) was 1692.4 IU/L. The ALT (24 h) was 41.8 IU/L, the AST (24 h) was 71.8 IU/L and the BUN (24 h) was 17.6 mg/dL. For the same molecule, the CRE (24 h) was 0.2 mg/dL, the Ca (24 h) was 10.7 mg/dL and the Cl (24 h) was 105.6 meq/L. It also gave a DBIL (24 h) of 0.006 mg/dL, a GLC (24 h) of 181.6 mg/dL and an IP (24 h) of 6.4 mg/dL. For the same molecule, the K (24 h) was 4.3 meq/L, the LDH (24 h) was 245.8 IU/L and the Na (24 h) was 141.2 meq/L. For the same molecule, the PL (24 h) was 154.2 mg/dL, the RALB (24 h) was 3.1 g/dL and the TBIL (24 h) was 0.016 mg/dL. The TC (24 h) was 79.6 mg/dL, the TG (24 h) was 79.2 mg/dL and the TP (24 h) was 5.5 g/dL. The gamma-GTP (24 h) was 1.2 IU/L.
